From patent US12168008B2, “Oxabicycloheptanes for modulation of immune response” (LIXTE BIOTECHNOLOGY, INC., priority 2016, dated 2024)

Experiments:
CD4+ T cells = assay: Human mixed lymphocyte reaction (Example 13); format: cell-based
Description: FIG. 39A. DCs were induced from purified monocytes by culturing in IL4 and GM-CSF for 7 days. 10^5 purified CFSE labelled CD4+ T cells were then co-cultured with 10^4 allogenic DCs in the presence of a titration of LB-100 in duplicates or triplicates for 5 days. LB-100 was replenished on day 3. Supernatants were collected on day 5 and measured for IFN-γ production. FACS analysis was performed on the cultured cells.
In vitro activity of LB-100 in human mixed lymphocytes reactions: To further confirm the immune-modulating effect of LB-100 has clinical utility, mixed lymphocyte reactions (MLRs) were performed using PBMC from healthy human donors. Monocyte derived dendritic cells were co-cultured with allogenic CD4+ T cells labelled with cytosolic dye CFSE. LB-100 was given on the day of co-culture (Day 0) and again on Day 3. Proliferation and IFN-γ secretion by CD4 T cells were assessed on Day 5 (FIG. 39A). There was a significant increase in CD4 T cell proliferation, as measured by the percentage of dividing cells, with LB-100 treatment at 1 μM (31% compared to 20% in controls) (FIG. 39B). There was also a trend towards increased proliferation at lower LB100 concentrations (in the sub-micromolar range). […] Also examined was the effect of lineage differentiation in CD4 T cells by labeling for T-bet. […] Next tested whether LB-100 could enhance IFN-γ secretion in vitro in combination with PD1 blockade using Nivolumab. A similar MLR assay was performed with LB-100.
Human mixed lymphocyte reaction—as previously described in 39. Dendritic cells (DCs) were generated by culturing monocytes isolated from PBMC using a monocyte isolation kit (StemCell) in vitro for 7 days with 500U/ml interleukin-4 (IL-4) and 250 U/ml GM-CSF (R&D Systems). CD4+ T cells (1×10^5) isolated with CD4 isolation kit (StemCell) and labeled with CFSE (ThermoFisher) were co-cultured with allogeneic DCs (1×10^4). At the initiation of assay, a titration of LB-100 and/or Nivolumab was added. After 3 days, LB-100 was replenished to the final indicated concentration. After 5 days, culture supernatants were analyzed by ELISA (eBioscience) and cells were analyzed by flow cytometry. At least 3 separate donors were obtained and results of one representative donor were reported.

PP2A = PP2A phosphatase assay in activated T cells; format: cell-based, mouse; details: 3 hours after stimulation with CD3 and CD28; greater effect in CD8
Description: LB-100 inhibits PP2A activity and enhances mTORC1 activation: PP2A enzymatic activity of isolated CD4 and CD8 cells from mice splenocytes were measured 3 hours after in vitro stimulation with plated CD3 and soluble CD28.
PP2A phosphatase assay—Mouse CD4+ and CD8+ T cells were isolated with CD4 and CD8 isolation kit (StemCell) respectively. Cells were activated using immobilized anti-CD3 (10 ug/ml) and soluble anti-CD28 (2 ug/ml) for three hour. PP2A activity was then evaluated after immunoprecipitation using a malachite green phosphatase assay kit as per the manufacturer's instructions (EMD Millipore).

progressive solid tumors = assay: Phase I study: clinical activity (RECIST 1.1); format: in vivo, human
Description: Response to treatment was assessed using RECIST version 1.1. All patients with measurable disease, who completed 2 cycles of LB-100 and had at least 1 post-baseline tumor assessment, were evaluable for efficacy. Patients receiving any LB-100 were evaluable for safety. The severity of adverse events and laboratory abnormalities is reported according to NCI-CTCAE version 4.0 and coded using Medical Dictionary for Regulatory Activities.

[1] = system: mTORC1, mTORC2 and PI(3)K-AKT pathways; assay: Phosphoflow of AKT and S6 in activated CD3 cells; format: cell-based, mouse; details: after 3 hours of activation
Description: After 3 hours of in vitro activation of isolated CD3 cells, the activity of mTORC1, mTORC2 and PI(3)K-AKT pathways were assessed by checking the phosphorylation of ribosomal S6 protein (S6), AKT at […] and AKT at Thr308 respectively. […] This difference was not observed in any of the 3 pathways at an early time point of 30 minutes after activation (FIG. 37).
Isolation of TILs—Mice were injected in the right thoracic flank with 0.5×10^6 CT26 cells and treated as above after tumors reached between 50-100 mm^3. After 2 treatments, mice were sacrificed and tumors excised. Tumors were subjected to mechanical disruption using a GentleMACS Dissociator (Miltenyi Biotec) in presence of enzymatic digestion using Tumor Dissociation Kit (Miltenyi Biotec). Intracellular cytokine staining, phosphoflow and flow cytometry—Suspensions containing T cells were stained with a fixable live/dead stain (Invitrogen) in PBS followed by surface antibody staining in FACS buffer (PBS with 0.5% BSA and 0.1% sodium azide). For intracellular staining, cells were stained for surface molecules following by fixation and permeabilization (eBioscience). For cytokine staining, cells were first stimulated with Cell Stimulation Cocktail (eBioscience) containing PMA/Ionomycin and protein transport inhibitor prior to undergoing staining. […] Cells were analyzed by flow cytometry (LSRII; BD Bioscience). […]

clinical = format: in vivo, human; details: in vivo; for half-life: 2.33 mg/m2, T1/2
Description: The main objective was to determine the safety, tolerability, and maximum tolerated dose of LB-100 given intravenously daily for three consecutive days every 3 weeks. The secondary objectives were to document any evidence of potential anti-tumor activity and obtain pharmacokinetic data on LB-100 and a metabolite, endothall, in patients receiving LB-100 at the MTD (Quang et al., 2016).
The plasma concentrations of LB-100 and endothall were measured (Quang et al., 2016) prior to and over 4 hours after completion of the 2-hour infusion at the MTD of 2.33 mg/m2 of LB-100 on day 1 in one patient and on day 1 and 3 in two patients. […] Plasma concentrations of endothall were low throughout the infusion, being below the lower limit of detection (5 ng/mL) in one patient.

[2] = of 20 patients with measurable disease

CN1CCN(C(=O)C2C(C(=O)O)[C@H]3CC[C@@H]2O3)CC1 (some centres unmarked) [LB-100]
enhancement of IFN-γ release (CD4+ T cells; 0.2 μM): 3.5 fold | T-bet expression in CD4 T cells (CD4+ T cells; 1 μM): significantly increased | enhancement of IFN-γ release (CD4+ T cells; 1 μM): 4 fold | CD4 T cell proliferation, percentage of dividing cells (CD4+ T cells; 1 μM, day 5, controls 20%): 31% | CD4 T cell proliferation (CD4+ T cells; 5 μM): impaired | PP2A enzymatic activity in CD4 and CD8 cells (PP2A): dose dependent decrease | duration of partial response or stability of disease (progressive solid tumors; atypical carcinoid of the lung, 0.83 mg/m^2): 5 cycles | duration of partial response or stability of disease (progressive solid tumors; breast cancer, 1.25 mg/m^2): 4 cycles | duration of partial response or stability of disease (progressive solid tumors; chondrosarcoma, 3.1 mg/m^2): 8 cycles | duration of partial response or stability of disease (progressive solid tumors; fibrosarcoma, started at 3.1 mg/m^2, two dose reductions): 12 cycles | duration of partial response or stability of disease (progressive solid tumors; malignant thymoma, 1.75 mg/m^2): 8 cycles | no progression of indicator lesion(s) (progressive solid tumors; [2]): 16 patients | significant increases in the size of indicator lesion(s) by RECIST criteria (progressive solid tumors; [2]): 3 patients | duration of partial response or stability of disease (progressive solid tumors; ovarian cancer, 1.75 mg/m^2): 6 cycles | duration of partial response or stability of disease (progressive solid tumors; pancreatic cancer, 0.83 mg/m^2): 15 cycles | partial response (progressive solid tumors; pancreatic carcinoma, noted after 10 cycles, maintained 5 more cycles, of 20 patients): One and one | duration of partial response or stability of disease (progressive solid tumors; testicular cancer, 1.25 mg/m^2): 5 cycles | activity of mTORC1 as measured by phosphorylation of S6 [1]: dose dependent increase | mTORC2 and PI(3)K-AKT pathways (AKT phosphorylation) [1]: minimal effect | half-life (clinical; female, human): 1.35 h | pharmacokinetics of LB-100, in words (clinical): low clearance, low volume of distribution, and a short half-life | T1/2 (clinical; male, human, 2.33 mg/m2): 0.95 h | half-life (clinical; male, human): 1.1 h
